Data: US4430324A (priority 1982, dated 1984)
Read-outs that look alike come from different tables or passages of the source.

Experiments:
cariogenic bacteria = test: inhibition of bacterial growth, overall findings; details: all bacterial isolates tested
S. salivarius H-257 = details: for IC50: read-out: ID/50; for ID/50 (recalculated as ppm F): 1440 min
S. mutans OMZ-176 = details: for IC50: read-out: ID/50; for ID/50 (recalculated as ppm F): 1440 min
S. sanguis 10556 = details: for IC50: read-out: ID/50; for ID/50 (recalculated as ppm F): 1440 min
S. mutans 6715 = details: for IC50: read-out: ID/50; for ID/50 (recalculated as ppm F): 1440 min
L. casei = details: for IC50: read-out: ID/50; for ID/50 (recalculated as ppm F): 1440 min
S. sanguis 10557 = details: for IC50: read-out: ID/50; for ID/50 (recalculated as ppm F): 1440 min
S. salivarius SS4 = details: for IC50: read-out: ID/50; for ID/50 (recalculated as ppm F): 1440 min
pH of solution = format: physicochemical
artificial plaque = test: in vitro antiplaque study; format: cell-based, clinical plaque samples; details: for Percentage Inhibition of Growth of Artificial Plaque: means ±95% confidence limits
Experimental: The in vitro plaque was initiated on uniformly sized aluminum plummets which were previously coated for 20 min. with wax stimulated whole saliva. These coated plummets were then placed in a Trypticase (B.B.L.) 1% sucrose growth medium inoculated with clinical plaque samples. After 5 hours of incubation at 37° C. the plummets were immersed in a solution containing equal volumes of whole saliva and the test compound for one minute and subsequently suspended overnight (37° C.) in a 20% solution of saliva supernatant. On the second day the plummets were retreated with the test solution (1 min.) and reincubated in inoculated Trypticase-sucrose growth medium for 5 hours. After this period of time the plaques were rinsed in distilled water for 5 minutes. The plaques were then removed from the plummets by sonication in 10 ml distilled water and quantitated in a Unicam SP500 spectrophotometer at 570 nm.
Five replicas per test compound were examined.

Compound	inhibition of bacterial growth (cariogenic bacteria)	IC50 (S. salivarius H-257) [µM]	IC50 (S. mutans OMZ-176) [µM]	IC50 (S. sanguis 10556) [µM]	IC50 (S. mutans 6715) [µM]	IC50 (L. casei) [µM]	IC50 (S. sanguis 10557) [µM]	IC50 (S. salivarius SS4) [µM]	also measured
[Ca] [Ca]	little or no effect	–	–	–	–	–	–	–	–
[Cl-].[Cl-].[Co+2] [CoCl2]	–	550	10600	2890	7720	> 12000	3840	5960	–
[Fe] [Fe]	little or no effect	–	–	–	–	–	–	–	–
[Mg] [Mg]	little or no effect	–	–	–	–	–	–	–	–
[Mn] [Mn]	little or no effect	–	–	–	–	–	–	–	–
[Cl-].[Na+] [Na]	little or no effect	–	–	–	–	–	–	–	–
N.N.[F-].[F-].[F-].[F-].[F-].[F-].[Sn] [Sn(NH4)2 F6, stannic ammonium fluoride]	less active than the stannous form SnF2	–	–	–	–	–	–	–	pH values in solution (pH of solution): ~3.8; ID/50 (recalculated as ppm F) (S. salivarius H-257; Table III, S. salivarius H-257): 46 ppm F; IC50 (S. salivarius H-257; Table II, fluoride salts, S. salivarius H-257, means of triplicate experiments): 400 µM; ID/50 (recalculated as ppm F) (S. mutans OMZ-176; Table III, S. mutans OMZ-176): 163 ppm F; IC50 (S. mutans OMZ-176; Table II, fluoride salts, S. mutans OMZ-176, means of triplicate experiments): 1430 µM; ID/50 (recalculated as ppm F) (S. sanguis 10556; Table III, S. sanguis 10556): 25 ppm F; IC50 (S. sanguis 10556; Table II, fluoride salts, S. sanguis 10556, means of triplicate experiments): 220 µM; ID/50 (recalculated as ppm F) (S. mutans 6715; Table III, S. mutans 6715): 137 ppm F; IC50 (S. mutans 6715; Table II, fluoride salts, S. mutans 6715, means of triplicate experiments): 1200 µM; ID/50 (recalculated as ppm F) (L. casei; Table III, L. casei): 288 ppm F; IC50 (L. casei; Table II, fluoride salts, L. casei, means of triplicate experiments): 2530 µM; ID/50 (recalculated as ppm F) (S. sanguis 10557; Table III, S. sanguis 10557): 45 ppm F; IC50 (S. sanguis 10557; Table II, fluoride salts, S. sanguis 10557, means of triplicate experiments): 390 µM; ID/50 (recalculated as ppm F) (S. salivarius SS4; Table III, S. salivarius SS4): 188 ppm F; IC50 (S. salivarius SS4; Table II, fluoride salts, S. salivarius SS4, means of triplicate experiments): 1650 µM
[Cl][Sn][Cl] [SnCl2]	–	3640	3680	1270	2260	3000 to 6000	1880	1450	–
O=S(=O)([O-])[O-].[Zn+2] [ZnSO4]	–	750	7500	360	5740	10400	400	6000	antiplaque activity (artificial plaque; 6.0-30.0 mM/L zinc): no difference in activity between ZnSO4 and ZnNH4 F3; Percentage Inhibition of Growth of Artificial Plaque (artificial plaque; zinc conc. 6.0 mM/L): 47 ± 14%; Percentage Inhibition of Growth of Artificial Plaque (artificial plaque; zinc conc. 15.0 mM/L): 51 ± 14%; Percentage Inhibition of Growth of Artificial Plaque (artificial plaque; zinc conc. 30.0 mM/L): 64 ± 14%
Al2 (SO4)3	–	5400	5910	5550	3560	6450	8450	7800	–
SnF2	–	740	2280	440	1500	2970	840	2450	ID/50 (recalculated as ppm F) (S. salivarius H-257): 29; ID/50 (recalculated as ppm F) (S. mutans OMZ-176): 87; ID/50 (recalculated as ppm F) (S. sanguis 10556): 17; ID/50 (recalculated as ppm F) (S. mutans 6715): 56; ID/50 (recalculated as ppm F) (L. casei): 113; ID/50 (recalculated as ppm F) (S. sanguis 10557): 32; % Reduction in Dissolution (pH 4): 57%; % Reduction in Dissolution (pH 5): 54%; % Reduction in Dissolution (pH 6): 45%; % Reduction in Dissolution (pH 7): 43%; ID/50 (recalculated as ppm F) (S. salivarius SS4): 93
